Test [1] deals with pentagastrin-stimulated gastric acid secretion. In words: inhibition of pentagastrin-stimulated gastric acid secretion, anaesthetised perfused rat stomach (Ghosh and Schild preparation). The test is classed as in vivo. The following applies: intravenous. An excerpt: a. The compounds were examined for their ability to inhibit pentagastrin-stimulated gastric acid secretion in the anaesthetised, perfused rat stomach preparation (Ghosh and Schild preparation).
M. N. Ghosh and H. O. Schild, (1958), Brit. J. Pharmacol, 13, 54.
The compounds were given intravenously.

Test [2] deals with gastric acid secretion. The test is described as follows: inhibition of gastric acid secretion in the pyloric ligated rat (Shay rat preparation). The test is classed as in vivo. The following applies: for ED50: sc. The text has this:
b. The compounds were examined for their ability to inhibit gastric acid secretion in the pyloric ligated rat model (Shay rat preparation).
H. Shay, S. A. Komarov, S. S. Fels, D. Merance, M. Gruenstein and H. Siplet, (1945), Gastroenerology, 5, 43.

In test [3] the test system is gastric acid secretion, stimulated by pentagastrin infusion. In words: inhibition of pentagastrin-stimulated gastric acid secretion, chronic fistula rat preparation. The following applies: 2-5 mg/kg, s.c. The test is classed as in vivo. The text has this:
c. The compounds were examined for their ability to inhibit gastric acid secretion, stimulated by pentagastrin infusion, in the chronic fistula rat preparation.
P. H. Guth and R. Mendick, (1965), Amer. J. Gastroenterology, 44, 545.

Test [4] has as its system indomethacin-induced ulcer. In words: indomethacin-induced ulcer test in fasted rats. The test is classed as in vivo, rat. The following applies: 20 mg/kg, s.c., twice; 5 hour test; indomethacin 50 mg/kg, i.p. On the procedure: d. Anti-ulcer activity was determined in a 5 hour indomethacin-induced (50 mg/kg, i.p.) ulcer test in fasted rats. Compound 63 inhibited ulceration by 71% when given at 20 mg/kg, s.c., twice during the course of the test.

Test [5] relates to 5-hydroxy-tryptamine-induced bronchoconstriction. In words: inhibition of 5-hydroxytryptamine-induced bronchoconstriction (Konsett-Rossler preparation). As to conditions: Cavia porcellus; intravenous, 2 minutes prior to 5-hydroxytryptamine dose. The test is classed as in vivo, guinea pig. On the procedure: a. The compounds were examined for their ability to inhibit 5-hydroxy-tryptamine-induced bronchoconstriction in the anaesthetised, artifically respired guinea pig (Konsett-Rossler preparation).
H. Konsett and R. Rossler, (1940), Naunyn-Schneidebergs Arch. Exp. Path. Pharmak., 195, 71.
After preparation of the guinea pig, a dose of 5-hydroxytryptamine producing an adequate response was determined by dosing, i.v., every 6 minutes. This dose was usually 10 μg. After a standard response was obtained, compounds were given intra-venously 2 minutes prior to the next standard dose and dosing of 5-hydroxytryptamine was continued every 6 minutes until the response returned to control values.

The subject of test [6] is histamine-induced asphyxic collapse. The test is described as follows: protection against aerosol administered, histamine-induced asphyxic collapse. The test is classed as in vivo, guinea pig. The text has this:
b. The compounds were examined for their ability to protect against aerosol administered, histamine-induced asphyxic collapse in guinea pigs.
M. A. Wasserman and R. L. Griffen, (1975), Am. Rev. Resp. Dis., 111, 946.

Test [7] relates to arterial blood pressure. The test is described as follows: effect on arterial blood pressure in the anaesthetised, normotensive rat. The test is classed as in vivo. The following applies: intravenous, dose range 0.001 → 1.0 mg/kg. How it is done: a. The effect of the compounds on arterial blood pressure was determined in the anaesthetised, normotensive rat. The rat preparation was similar to that desribed in "Pharmacological experiments on intact preparations", E. and S. Livingstone, Edinburgh and London, 1970, p. 63.
The active compounds were predominantly depressor agents in the normotensive rat.

In test [8] the test system is femoral artery of the hind limb. In words: vasodilator activity in femoral artery of the hind limb (vascular resistance). The test is classed as in vivo, beagle dog. The following applies: dose range of 0.01-1 mg/kg, intra-arterially. On the procedure:
(§1) b. The vasodilator activity of the compounds was determined in the femoral artery of the hind limb of the anaesthetised beagle dog. The method used was similar to that described by J. Nakano and J. R. McCurdy, (1967), J. Pharmac. Exp. Ther., 156, 538.
The compounds were administered into the iliac artery and the effects on both flow and pressure in the hind limb were recorded. Changes in vascular resistance (R) were calculated from the following expression: [formula]

Test [9] has as its system total peripheral resistance. In words: total peripheral resistance, intravenous. The test is classed as in vivo, beagle dog. As to conditions: dose range of 0.01-10 mg/kg, intra-venously. How it is done: as §1
In other experiments the compounds were administered into the left femoral vein and the right femoral arterial pressure and cardiac output were monitored. From these experiments, total peripheral resistance (TPR) was calculated from the expression: [formula]

The subject of test [10] is guinea pig platelet aggregation induced by ADP. The test is described as follows: inhibition of guinea pig platelet aggregation induced in vitro by ADP. As to conditions: Cavia porcellus, ADP 5.45×10^-7 M, platelet rich plasma, 37° C. The test is classed as cell-based. On the procedure: a. The compounds were examined for their ability to inhibit guinea pig platelet aggregation induced, in vitro, by 5.45×10^-7 M adenosine diphosphate (ADP).
The method consisted of diluting the compound immediately before use from a 10 mg/ml solution in ethanol to a 1 mg/ml solution with saline and then adding the appropriate volume to 0.5 ml of platelet rich plasma. The mixture was stirred at 37° C. for 1 minute before 25 μl of an ADP solution was added to give a final ADP concentration of 5.45×10^-7 M. The aggregation response was then recorded relative to the control.

Test [11] relates to blood pressure. In words: anti-hypertensive activity in the renal hypertensive rat. The test is classed as in vivo. As to conditions: 100 mg/kg, orally. On the procedure:
c. The anti-hypertensive activity of the compounds was determined in the renal hypertensive rat. Rats were made hypertensive by nephrectomy and treatment with deoxycorticosterone acetate/NaCl. The compounds were administered orally to a group of 3 hypertensive rats at a dose level of 100 mg/kg and their blood pressure was monitored after 4, 6 and 24 hours.

Test [12] deals with human platelet aggregation induced by adenosine diphosphate (ADP). In words: inhibition of human platelet aggregation induced in vitro by ADP. The test is classed as cell-based. The following applies: 10^-4 M, platelet rich plasma, 37° C. On the procedure:
(§2) b. The compounds were examined for their ability to inhibit human platelet aggregation induced, in vitro, either by adenosine diphosphate (ADP) or collagen. The compounds were added in saline or dimethylformamide to platelet rich plasma at 37° C. to give a final concentration of 10^-4 M. After 3 minutes the platelets were challenged with ADP or collagen. The aggregation response was then recorded relative to the control.

In test [13] the test system is human platelet aggregation induced by collagen. The test is described as follows: inhibition of human platelet aggregation induced in vitro by collagen. The test is classed as cell-based. On the procedure: as §2
Test [14] deals with gerbil colon; contraction to prostaglandin F2α. The test is described as follows: prostaglandin antagonist activity on the isolated perfused gerbil colon (contraction to prostaglandin F2α). As to conditions: Meriones unguiculatus; reduction of contraction to prostaglandin F2α; one minute pre-contact time. On the procedure:
The compounds were tested for prostaglandin-like and for prostaglandin antagonist activity on the isolated perfused gerbil colon preparation (smooth muscle). This has been shown by J. R. Weeks, J. R. Schultz and W. E. Brown, (1968), J. App. Physiol, 25, 783, to have greater precision and sensitivity than other preparations. A 15 mm portion of the descending colon is suspended in an organ bath and perfused with De Jalon's saline at 32° C. Compounds were given in a three minute cycle with a 45 second contact time and a 15 second washout time. Antagonist compounds were given with a one minute pre-contact time.
Antagonist activity was determined by measuring the percentage reduction of the contraction to two standard doses of prostaglandin F2α which gave responses between 20% and 80% of maximum response.

The mark [15] stands for this setting: subcutaneously twice, 3 hour Shay rat preparation.

Values after ≈ are worked out from the molar mass of the structure shown. Where two headings read alike, the source gives them in different places.

As usually defined, the ED50 is the midpoint of the dose-response relation. As usually defined, the IC50 is the concentration that gives 50% inhibition. For the compound `CCCCCCC(C)(O)CCN1C(=O)CC(=O)C1CCCCCCC(=O)OCC` (stereo not drawn) [Compound 63, 2-(6'-Ethoxycarbonyl-n-hexyl)-1-(3"-hydroxy-3"-methyl-n-nonyl)-pyrrolidin-3,5-dione], the ED50 came to 0.09 mg/kg in [1]; 5.3 mg/kg in test [2] (subcutaneously once, 3 hour Shay rat preparation, at the time of ligation, read-out: ED50, given once); 2.25 mg/kg in [2] (subcutaneously twice, 3 hour Shay rat preparation, at time of ligation and 1.5 hours after, read-out: ED50, given twice); 0.008 mg/kg in [5]. In addition, the “activity when given intraduodenally” value in [2] (intraduodenally, Shay rat preparation) is “active”. In test [2] (setting [15]), the “H^+ concentration” value is listed as “decreasing the H^+ concentration”. Besides, in test [2] (setting [15]), the “total titratable acidity in the stomach” value is recorded as “lowered the total titratable acidity in the stomach”. Besides, the volume of secretion entry in test [2] (setting [15]) is reported as “inhibiting the volume of secretion”. The inhibiting acid secretion entry in test [3] is given as “very effective”. The same compound came in with an inhibition of ulceration in [4] of 71%. Moreover, the “protecting against histamine challenge” value in test [6] was “very effective”. For the same compound, in test [7], the “% Depression at 1 mg/kg” value turned out to be 60%. For the same compound, the vascular resistance result in test [8] is reported as “decreased vascular resistance”. Also, the “total peripheral resistance (TPR)” value in [9] is given as “decreased total peripheral resistance”. The compound also displayed an IC50 in test [10] of 1300 nM.

A word on the inhibition: it is how much of the control response was suppressed. Low values mean a response near the control, high ones a response far below the control. On to `CCCCCC(O)CCN1C(=O)CCC(=O)C1CCCCCCC(=O)OCC` (stereo not drawn) [Compound 73, 2-(6'-Ethoxycarbonyl-n-hexyl)-1-(3"-hydroxy-n-octyl)-piperidin-3,6-dione], for which the vascular resistance entry in test [8] was “decreased vascular resistance”. The “total peripheral resistance (TPR)” value in [9] is “decreased total peripheral resistance”. The “fall in blood pressure after 4 hours” value in [11] (4 hours) worked out at 16%. Besides, in [11] (6 hours), the “blood pressure after 6 hours” value is listed as “risen to normal hypertensive levels”. In addition, the IC50 in test [10] was found to be 44000 nM; in test [13] (Platelet, read-out: IC50 against collagen-induced aggregation), 2800 nM; in test [14] it was 3.4 µg/mL (≈ 8.55 µM). In addition, the inhibition at 100 µM in test [12] was 87%; in test [13] (10^-4 M, collagen, platelet rich plasma, 37° C.), 100%.

Values taken from patent publication US4299970A, “Oxy-alkylamino carboxylic esters” (Beecham Group Limited, priority 1974, dated 1981).
